# According to article PMC7883289, “Synthesis of Paeonol-Ozagrel Conjugate: Structure Characterization and In Vivo Anti-Ischemic Stroke potential” (Frontiers in Pharmacology, 2021):
# How the values were obtained:
# Format in all cases: in vivo
# IL–6, IL–1β, TNF–α = assay: ELISA assay for inflammatory cytokines in brain tissue of MCAO rats; conditions: versus model group (p < 0.001), paeonol and OS 3 mg/kg, POC 4.5 mg/kg iv, n = 6
# Protocol: (§1) Male Sprague Dawley (SD) rats weighing among 220 g-230 g (Anhui Medicine University, Hefei, China; certificate number: SCXK20190,003) were housed under ad libitum access to food and water with a standardized light-dark cycle condition (25 ± 2°C, 12-hour light/dark cycle). All the experimental protocols were performed in accordance with the Institutional Animal Care and Use Committee of Anhui University of Chinese Medicine (Animal ethics number: AHUCM-rats-2019001). We used the minimal number of study animals (n = 6 rats in each group for different experiments). The rats were fastened upon the operating table in a supine position after being anesthetized with 2% pelltobarbitalum natricum (50 mg/kg). After disinfection of the skin within close proximity of the operative region, the right common carotid artery (CCA), external carotid artery (ECA) and internal carotid artery (ICA) were exposed with blunt dissection. The CCA was temporarily ligated and the ECA were permanently ligated ([Liu et al., 2016]). […] According to the manufacturer's instructions, the levels of inflammatory cytokines (IL - 6, IL-1β, TNF-α; R&D Systems, Minneapolis, MN, United States) and TXA2 (Wuhan ColorfulGene Biological Technology Co., LTD) were detected using the commercial ELISA kits. The resultant colored products were measured the absorbance at 450 nm. […]
# [1] = system: middle cerebral artery occlusion (MCAO) rats; assay: Measurement of infarct volume by TTC staining in MCAO rats; conditions: 24 h after reperfusion, single iv dose: paeonol and OS 3 mg/kg, POC 4.5 mg/kg, n = 6
# Protocol: Male Sprague Dawley (SD) rats weighing among 220 g-230 g (Anhui Medicine University, Hefei, China; certificate number: SCXK20190,003) were housed under ad libitum access to food and water with a standardized light-dark cycle condition (25 ± 2°C, 12-hour light/dark cycle). All the experimental protocols were performed in accordance with the Institutional Animal Care and Use Committee of Anhui University of Chinese Medicine (Animal ethics number: AHUCM-rats-2019001). We used the minimal number of study animals (n = 6 rats in each group for different experiments). The rats were fastened upon the operating table in a supine position after being anesthetized with 2% pelltobarbitalum natricum (50 mg/kg). After disinfection of the skin within close proximity of the operative region, the right common carotid artery (CCA), external carotid artery (ECA) and internal carotid artery (ICA) were exposed with blunt dissection. The CCA was temporarily ligated and the ECA were permanently ligated ([Liu et al., 2016]). A nylon monofilament surgical thread was introduced into the ICA to block the MCA when the blunted distal end met resistance. After 2 h of occlusion, reperfusion was accomplished to restore blood supply to the MCA area by removing the filament ([Li et al., 2009]; [Zhai et al., 2017]). […] Rats were split randomly into five groups, including the sham, model, paeonol, OS and POC group. After 2 h of reperfusion, the paeonol and OS groups received the drug by intravenous injection at a single dose of 3 mg/kg ([Imamura et al., 2003]; [Park et al., 2010]; [Gai et al., 2019]), which the doses of paeonol and OS uesd previously were benificial in rats and the dose of OS is within the clinical dose range. […] Cerebral infarction volume was determined using TTC staining. […] The infarction and total brain volume were quantified using ImageJ software. The infarct volume was calculated as a ratio of the infarcted tissue relative to the total area of the whole-brain coronal section ([Ye and Gao, 2008]; [Katayama et al., 2017]). […]
# TXA2 = assay: ELISA assay for TXA2 in brain tissue and blood of MCAO rats; conditions: paeonol and OS 3 mg/kg, POC 4.5 mg/kg iv, n = 6
# Protocol: as §1
structure (smiles),measurement,setting,value
"COc1ccc(C(C)=O)c(OC(=O)C=Cc2ccc(Cn3ccnc3)cc2)c1 [POC, paeonol-ozagrel conjugate]","release of inflammatory cytokines (IL–6, IL–1β, TNF–α) in brain tissue","IL–6, IL–1β, TNF–α",can inhibit the expression of three markers of inflammatory cytokines
same,cerebral infarction volume percentage,[1],11.77% ± 2.53
same,levels of TXA2 in blood (plasma),TXA2; blood/plasma,decreasing levels
same,levels of TXA2 in brain,TXA2; brain tissue,decreasing levels
